{"source": "patent US12366579B2", "about": "“Sulfur-heterocycle exchange chemistry and uses thereof” (University of Virginia Patent Foundation, priority 2019, dated 2025)", "key": {"[1]": {"assay": "HPLC assay, p-cresol reactivity against a sulfonyl probe mixture", "type": "physicochemical", "conditions": "TMG 1.1 equivalents, 0° C.", "description": "(§1) The following reagents were prepared and kept at 0° C. prior to use: 0.1 M solution of caffeine in acetonitrile (ACN), 1.0 M solution of n-butylamine, p-cresol, tetramethylguanidine (TMG), acetic acid in ACN, and 10 mM solution of the probes in a mixture of DMF-ACN (v/v=10:90) are made.\n(i) p-Cresol reactivity against a probe mixture: A solution of p-cresol (16.5 μmol, 3.3 eq) was premixed with 1.1, 2.2, or 3.3 eq of TMG. To initiate the reaction, the p-cresol/TMG solution was added to a sulfonyl probe mixture of HHS-475/HHS-482/HHS-SF-1 (500 μL, 5 μmol, 1.0 eq each) and the reaction was kept at 0° C. The reaction progress was monitored by taking out a 50.0 μL aliquot of the reaction mixture at various time points followed by addition of a 10 μL quenching solution of acetic acid (0.5 M final, 5.0 μmol) and the internal caffeine standard (0.05 M final, 0.5 μmol). Sample (1.0 μL) was injected and analyzed by reverse-phase HPLC on a Shimadzu 1100 Series spectrometer (Shimadzu, Kyoto, Japan) with UV detection at 254 nm. Reaction progress was evaluated by monitoring consumption of sulfonyl probes because all probes generate a shared p-cresol and n-butylamine product. Chromatographic separation was performed using a Phenomenex Kinetex C18 column (2.6 μm, 50 mm×4.6 mm, Phemonenex, Torrance, California, United States of America). […]"}, "[2]": {"assay": "HPLC assay, n-butylamine reactivity against a sulfonyl probe mixture", "type": "physicochemical", "conditions": "TMG 3.3 equivalents", "description": "as §1\n(ii) n-Butylamine reactivity against a probe mixture: Reactivity of sulfonyl probes against n-butylamine (3.3 eq) was performed as described above except the amount of TMG was fixed at 3.3 eq."}, "[3]": {"tested_on": "human cell proteomes (HEK293T, A549, DM93, H82, and Jurkat cells)", "assay": "LC-MS chemical proteomics of probe-modified tyrosine sites across 5 cell proteomes", "type": "binding", "conditions": "HHS-465 and -475 together; 100 μM, 1 hr, 25° C.", "description": "Proteomes were diluted to 2.3 mg/mL in PBS and sample aliquots (432 μL) were treated with sulfonyl-triazole or -fluoride probes at the indicated concentrations (5 μL, 100× stock in DMSO), mixed gently and incubated for 1 h at room temperature. Probe-modified proteomes were subjected to CuAAC conjugation to desthiobiotin-PEG3-azide (10 μL of 10 mM stock in DMSO; final concentration of 200 μM) using TCEP (10 μL of fresh 50 mM stock in water; 1 mM final concentration), TBTA ligand (33 μL of a 1.7 mM 4:1 t-butanol/DMSO stock, 100 μM final concentration), and CuSO4 (10 μL of 50 mM stock, 1 mM final concentration). Samples were mixed by vortexing and then incubated for 1 h at room temperature. Excess reagents were removed by chloroform-methanol extraction as previously described^51. Protein pellets were re-suspended in 500 μL of 6M urea/25 mM ammonium bicarbonate followed by DTT reduction and IAA alkylation as previously described^5. Excess reagents were removed by chloroform/methanol extraction as described above, and the protein pellet was re-suspended in 500 μL of 25 mM ammonium bicarbonate and then digested to peptides using trypsin/Lys-C (7.5 μg in 15 μL of ammonium bicarbonate, sequencing grade from Promega, Madison, Wisconsin, United States of America) was added to the mixture and incubated for 3 hrs at 37° C. […]"}, "[4]": {"assay": "HPLC reactivity assay with glutathione (GSH stability)", "type": "physicochemical", "conditions": "5×GSH, basic conditions (TMG)", "description": "Glutathione (GSH) adduction to compounds is a mechanism of metabolism for compounds administered to animals and humans. Accordingly, an HPLC reactivity assay^72 was performed to evaluate whether sulfonyl-triazoles (HHS-475) react with GSH. HHS-475 (see Example 1) was used as an exemplary SuTEx compound. Initially, the HPLC assay was used to monitor the rapid reaction of HHS-475 with the model nucleophile p-cresol (as a mimic of the tyrosine side chain) under basic conditions (TMG). […] The 5×GSH was used because GSH is typically found at high concentrations in vivo."}}, "data": [{"smiles": "C#CCNC(=O)c1ccc(S(=O)(=O)n2cncn2)cc1", "note": "[HHS-475, 4-((1H-1,2,4-Triazol-1-yl)sulfonyl)-N-(prop-2-yn-1-yl)benzamide]", "values": [{"measurement": "time to consumption of probe by p-cresol", "setting": "[1]", "result": "≤ 30", "unit": "min"}, {"measurement": "time to complete reaction with n-butylamine", "setting": "[2]", "result": 6, "unit": "h"}, {"measurement": "tyrosine sites identified in aggregate across 5 cell proteomes", "setting": "[3]", "result": "~8,000 sites"}, {"measurement": "reaction with GSH", "setting": "[4]", "result": "negligible reaction"}]}]}
